Assay results taken from patent US9163015B2, “Pyrazolopyridine, pyrarolopyrazine, pyrazolopyrimidine, pyrazolothiophene and pyrazolothiazole compounds as MGLUR4 allosteric potentiators, compositions, and methods of treating neurological dysfunction” (Vanderbilt University, priority 2010, dated 2015).
pEC50: −log10 of the molar value.

biological target: human mGluR4 (Homo sapiens (Human), UniProt Q14833); experiment: mGluR4 potentiation assay, CHO cells transfected with human mGluR4, Ca2+-sensitive fluorescent dye, EC20 agonist; assay type: cell-based; conditions: potentiation of mGluR4; table does not state human or rat receptor
Sequence (Q14833 33-912): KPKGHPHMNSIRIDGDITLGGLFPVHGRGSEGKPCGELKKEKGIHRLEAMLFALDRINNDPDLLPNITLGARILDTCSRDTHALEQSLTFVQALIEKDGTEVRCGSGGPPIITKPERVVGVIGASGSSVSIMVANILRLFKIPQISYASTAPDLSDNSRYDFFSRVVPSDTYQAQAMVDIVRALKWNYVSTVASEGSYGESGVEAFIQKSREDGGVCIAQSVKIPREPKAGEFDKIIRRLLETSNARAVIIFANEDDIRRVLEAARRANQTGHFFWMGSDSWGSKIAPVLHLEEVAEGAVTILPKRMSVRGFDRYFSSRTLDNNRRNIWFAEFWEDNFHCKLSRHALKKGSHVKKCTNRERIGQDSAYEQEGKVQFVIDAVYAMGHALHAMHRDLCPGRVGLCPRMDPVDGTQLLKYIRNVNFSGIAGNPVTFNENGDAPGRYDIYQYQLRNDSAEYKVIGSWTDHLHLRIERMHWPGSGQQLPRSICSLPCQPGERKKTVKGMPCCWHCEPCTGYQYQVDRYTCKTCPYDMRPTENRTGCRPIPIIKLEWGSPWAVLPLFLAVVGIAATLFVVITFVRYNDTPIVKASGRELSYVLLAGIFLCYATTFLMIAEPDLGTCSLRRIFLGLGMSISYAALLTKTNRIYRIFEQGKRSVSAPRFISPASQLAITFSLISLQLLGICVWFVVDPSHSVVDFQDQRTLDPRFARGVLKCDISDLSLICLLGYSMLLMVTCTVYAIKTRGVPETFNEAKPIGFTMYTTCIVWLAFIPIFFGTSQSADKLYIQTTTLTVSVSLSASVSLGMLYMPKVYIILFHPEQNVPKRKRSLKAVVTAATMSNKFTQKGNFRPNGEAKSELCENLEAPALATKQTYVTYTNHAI
Procedure: The disclosed compounds and compositions can be evaluated for their ability to act as a potentiator of metabotropic glutamate receptor activity, in particular mGluR4 activity, by any suitable known methodology known in the art. For example, Chinese Hamster Ovary (CHO) cells transfected with human mGluR4 or HEK cells co-transfected with rat mGluR4 and the G-protein regulated Inwardly Rectifying Potassium channel (GIRK) were plated in clear bottom assay plates for assay in a Hamamatsu FDSS Fluorometric Plate Reader. The cells were loaded with either a Ca2+-sensitive fluorescent dye or the thallium responsive dye and the plates were washed and placed into a suitable kinetic plate reader. For human mGluR4 assays, a fluorescence baseline was established for 3-5 seconds, the disclosed compounds were then added to the cells, and the response in cells was measured. Approximately two and a half minutes later, a concentration of mGluR4 orthosteric agonist (e.g. glutamate or L-AP4) eliciting approximately 20% (EC20) of the maximal agonist response was added to the cells, and the response was measured. Two minutes later, a concentration of mGluR4 agonist (e.g. glutamate or L-AP4) eliciting 80% (EC80) of the maximal agonist response was added to the cells, and the response was measured. For rat mGluR4/GIRK experiments, a baseline was established for approximately five seconds, disclosed compounds were added, and either an EC20 or EC80 concentration of agonist was added approximately two and one half minutes later.
The above described assay operated in two modes. In the first mode, a range of concentrations of the disclosed compounds are added to cells, followed by a single fixed concentration of agonist. If the compound acts as a potentiatior, an EC50 value for potentiation and a maximum extent of potentiation by the compound at this concentration of agonist is determined by non-linear curve fitting. If the compound acts as a noncompetitive antagonist, an IC50 value is determined by non-linear curve fitting. In the second mode, several fixed concentrations of the disclosed compounds are added to various wells on a plate, followed by a range in concentrations of agonist for each concentration of disclosed compound. The EC50 values for the agonist at each concentration of compound are determined by non-linear curve fitting. A decrease in the EC50 value of the agonist with increasing concentrations of the sample compound (a leftward shift of the agonist concentration-response curve) is an indication of the degree of mGluR4 potentiation at a given concentration of the sample compound. A decrease in the maximal response of the agonist with increasing concentrations of the sample compounds, with or without a rightward shift in agonist potency, is an indication of the degree of noncompetitive antagonism at mGluR4. The second mode also indicates whether the sample compounds also affect the maximum response to mGluR4 to agonists.

In order of rising pEC50:
1. CS(=O)(=O)c1cc(Nc2n[nH]c3cccnc23)ccc1F [Example 72, N-(4-fluoro-3-(methylsulfonyl)phenyl)-1H-pyrazolo[4,3-b]pyridin-3-amine]  5.04
2. Clc1cc(N(c2ncccn2)c2n[nH]c3cccnc23)ccc1Oc1ncccn1 [Example 27, N-(3-chloro-4-(pyrimidin-2-yloxy)phenyl)-N-(pyrimidin-2-yl)-1H-pyrazolo[4,3-b]pyridin-3-amine]  5.04
3. CC1Oc2ccc(Nc3n[nH]c4cccnc34)cc2N(C)C1=O (centres unmarked) [Example 63, 6-((1H-pyrazolo[4,3-b]pyridin-3-yl)amino)-2,4-dimethyl-2H-benzo[b][1,4]oxazin-3(4H)-one]  5.08
4. CS(=O)(=O)c1ccc(Nc2n[nH]c3cccnc23)cc1Cl [Example 56, N-(3-chloro-4-(methylsulfonyl)phenyl)-1H-pyrazolo[4,3-b]pyridin-3-amine]  5.10
5. CN(c1cccc(Cl)c1)c1n[nH]c2cccnc12 [Example 86, N-(3-chlorophenyl)-N-methyl-1H-pyrazolo[4,3-b]pyridin-3-amine]  5.10
6. CC(C)(C)c1cccc(Nc2n[nH]c3cccnc23)c1 [Example 61, N-(3-(tert-butyl)phenyl)-1H-pyrazolo[4,3-b]pyridin-3-amine]  5.10
7. Clc1ccc(Nc2n[nH]c3cccnc23)cn1 [Example 15, N-(6-chloropyridin-3-yl)-1H-pyrazolo[4,3-b]pyridin-3-amine]  5.26
8. CCc1cccc(Nc2n[nH]c3cccnc23)c1 [Example 60, N-(3-ethylphenyl)-1H-pyrazolo[4,3-b]pyridin-3-amine]  5.59
9. Clc1cc(Nc2n[nH]c3cccnc23)cnc1N1CCOCC1 [Example 30, N-(5-chloro-6-morpholinopyridin-3-yl)-1H-pyrazolo[4,3-b]pyridin-3-amine]  5.62
10. Fc1ccc(Nc2n[nH]c3scnc23)cc1Cl [Example 41, N-(3-chloro-4-fluorophenyl)-1H-pyrazolo[4,3-d]thiazol-3-amine]  5.93
11. Oc1ccc(Nc2n[nH]c3cccnc23)cc1F [Example 73, 4-((1H-pyrazolo[4,3-b]pyridin-3-yl)amino)-2-fluorophenol]  6.46
12. Fc1cc(F)c(Nc2n[nH]c3cccnc23)cc1Cl [Example 79, N-(5-chloro-2,4-difluorophenyl)-1H-pyrazolo[4,3-b]pyridin-3-amine]  6.47
13. Fc1ccc2[nH]nc(Nc3ccc(F)c(Cl)c3)c2n1 [Example 95, N-(3-chloro-4-fluorophenyl)-5-fluoro-1H-pyrazolo[4,3-b]pyridin-3-amine]  6.51
14. FC(F)Oc1cccc(Nc2n[nH]c3cccnc23)c1 [Example 9, N-(3-(difluoromethoxy)phenyl)-1H-pyrazolo[4,3-b]pyridin-3-amine]  6.60
15. Oc1ccc(Nc2n[nH]c3cccnc23)cc1Cl [Example 36, 4-((1H-pyrazolo[4,3-b]pyridin-3-yl)amino)-2-chlorophenol]  6.66
16. Fc1ccc(Nc2n[nH]c3nccnc23)cc1Cl [Example 28, N-(3-chloro-4-fluorophenyl)-1H-pyrazolo[3,4-b]pyrazin-3-amine]  6.81
17. Fc1cc(Nc2n[nH]c3cccnc23)ccc1Oc1ccc(Cl)cn1 [Example 76, N-(4-((5-chloropyridin-2-yl)oxy)-3-fluorophenyl)-1H-pyrazolo[4,3-b]pyridin-3-amine]  6.82
18. Fc1cc(Nc2n[nH]c3cccnc23)cc(F)c1F [Example 80, N-(3,4,5-trifluorophenyl)-1H-pyrazolo[4,3-b]pyridin-3-amine]  6.84
19. Clc1cccc(Nc2n[nH]c3cccnc23)c1 [Example 1, N-(3-chlorophenyl)-1H-pyrazolo[4,3-b]pyridin-3-amine]  6.86
20. N#Cc1ccc(Nc2n[nH]c3cccnc23)cc1Cl [Example 21, 4-((1H-pyrazolo[4,3-b]pyridin-3-yl)amino)-2-chlorobenzonitrile]  7.03
